# Tests used:
# [1] = cited from earlier work
# microcirculation = type: in vivo
# Excerpt: This acceleration of microcirculation has many positive benefits.
# [2] = tested on: wounds, burns (of all degrees) and several types of chronic lesions; experiment: Wound healing, anecdotal preliminary experiment; type: in vivo
# inflammation = experiment: Anti-inflammatory, anecdotal preliminary experiment; type: in vivo; conditions: all forms of delivery
# laboratory mice = experiment: LD-50 animal safety studies; type: in vivo; conditions: oral feeding, intravenous infusion and inhalation, up to 50 percent liquid or 100 percent powder
# Experimental: Applicant has tested the final reaction product in LD-50 animal (laboratory mice) studies. These studies were conducted with oral feeding, intravenous infusion and inhalation. […] (Applicant's testing facility was unable to kill the mice with very high concentrations (up to 50 percent liquid or 100 percent powder) of Applicant's Tri-Amino.
# [3] = Hygroscopicity of the powder; type: physicochemical
# Excerpt: Tri-Amino is a hygroscopic powder and as such is a valuable additive to moisturizing cosmetics.
Compound,solubility in water [1],toxic side effects on acceleration of microcirculation (microcirculation; in vivo),"vaso-dilating qualities (microcirculation; topically or internally, anecdotal, preliminary)","healing of wounds, burns and chronic lesions [2]",lesions healed [2],anti-inflammatory qualities (inflammation),toxicity in LD-50 studies (laboratory mice),hygroscopicity [3]
"Nc1ccc(C(=O)O)cc1 [PABA, p-aminobenzoic acid]",slightly soluble in water,–,–,–,–,–,–,–
2-amino 5-triaminoguanidovalericbenzoicdiacetate [Tri-Amino],–,without toxic side effects,exhibited vaso-dilating qualities,"ability to aid and accelerate the healing of wounds, burns (of all degrees) and several types of chronic lesions","radiation burns (third degree with complete suppression of scar formation), squamous cell carcinoma, basal cell carcinoma, psoriasis, venous stasis ulcers, decubitus ulcers (bed sores), deep surgical wounding (with suppression of scar formation), oral & genital herpes",shown anti-inflammatory qualities,no toxicity what-so-ever,hygroscopic

# Reference: patent US20080064754A1, “Amino ion releasing hydrogen bonded molecule” (priority 2006, published 2008)
